Experimental data published in paper PMC8343220, “The selectivity of α‐adrenoceptor agonists for the human α1A, α1B, and α1D‐adrenoceptors” (Pharmacology Research & Perspectives, 2021).

Key:
Type in all cases: cell-based, Chinese hamster
[1] = tested on: parental CHO cell line without any transfected receptors; experiment: Forskolin‐stimulated cAMP accumulation, parent CHO cells without transfected receptors
[2] = tested on: parental CHO cell line without any transfected receptors; experiment: ^3H‐cAMP accumulation, parent CHO cells without transfected receptors
[3] = tested on: parental CHO cell line without any transfected receptors; experiment: Intracellular calcium mobilization, parent CHO cells without transfected receptors
[4] = tested on: parental CHO cell line without any transfected receptors; experiment: ERK1/2‐phosphorylation, parent CHO cells without transfected receptors

Row | Compound | cAMP accumulation (in presence of forskolin) % forskolin-stim cAMP [1] | cAMP accumulation (in presence of forskolin) Log EC50 [1] | cAMP accumulation % forskolin [2] | Intracellular calcium release % ionomycin [3] | ERK1/2-phosphorylation % PDBu [4] | cAMP accumulation response fold over basal ([2]; parent CHO cells, 10μM, n=6) [fold over basal] | ERK1/2-phosphorylation Log EC50 [4]
1 | COc1ccccc1N1CCN(CC2CN3C(=O)N(C)c4ccccc4C3=N2)CC1 (stereo not drawn) [2-MPMDQ] | No response | No response | No response | No response | No response |  | 
2 | C=C[C@@]1(C)CC(=O)[C@]2(O)[C@@]3(C)[C@@H](O)CCC(C)(C)[C@@H]3[C@H](O)[C@H](OC(C)=O)[C@@]2(C)O1 [forskolin] |  |  |  |  |  | 39.5 ± 3.2 | 
3 | CC(N)C(O)c1ccc(O)c(O)c1 (stereo not drawn) [α-methylnorepinephrine] | No response | No response | No response | No response | No response |  | No response
